From patent US10239840B2, “Benzoazepine derivatives” (ViiV HEALTHCARE UK LIMITED, priority 2015, dated 2019)

Tested on: HIV
Assay: MT4 assay, antiviral HIV activity
Type: cell-based
Settings: MT-4 cells (HTLV-1 transformed), read-out at 96 hours with cell titer glo
Method: Antiviral HIV activity and cytotoxicity values for compounds of the invention from Table 1 were measured in parallel in the HTLV-1 transformed cell line MT-4 based on the method previously described (Hazen et al., 2007, In vitro antiviral activity of the novel, tyrosyl-based human immunodeficiency virus (HIV) type 1 protease inhibitor brecanavir (GW640385) in combination with other antiretrovirals and against a panel of protease inhibitor-resistant HIV (Hazen et al., “In vitro antiviral activity of the novel, tyrosyl-based human immunodeficiency virus (HIV) type 1 protease inhibitor brecanavir (GW640385) in combination with other antiretrovirals and against a panel of protease inhibitor-resistant HIV”, Antimicrob. Agents Chemother. 2007, 51: 3147-3154; and Pauwels et al., “Sensitive and rapid assay on MT-4 cells for the detection of antiviral compounds against the AIDS virus”, J. of Virological Methods 1987, 16: 171-185).
Luciferase activity was measured 96 hours later by adding a cell titer glo (Promega, Madison, Wis.). Percent inhibition of cell protection data was plotted relative to no compound control. Under the same condition, cytotoxicity of the compounds was determined using cell titer Glo™ (Promega, Madison, Wis.). IC50s were determined from a 10 point dose response curve using 3-4-fold serial dilution for each compound, which spans a concentration range >1000 fold.
These values are plotted against the molar compound concentrations using the standard four parameter logistic equation: y=((Vmax*x^n)/(K^n+x^n)+Y2
Y2=minimum γ n=slope factor
Vmax=maximum γ x=compound concentration [M]

Row | SMILES | IC50
1 | Cc1c(-c2c(C)c3c(c(C)c2[C@H](OC(C)(C)C)C(=O)O)CCN(C(=O)c2cccc(F)c2)CC3)cc(Cl)c2c1CCCO2 (atropisomer, axis not shown; (M)) [Example 1, (S)-2-(tert-butoxy)-2-((M)-8-(8-chloro-5-methylchroman-6-yl)-3-(3-fluorobenzoyl)-6,9-dimethyl-2,3,4,5-tetrahydro-1H-benzo[d]azepin-7-yl)acetic Acid] | 27 nM
2 | Cc1c(-c2c(C)c3c(c(C)c2[C@H](OC(C)(C)C)C(=O)O)CCN(C(=O)c2cccc(F)c2)CC3)cc(F)c2c1CCCO2 (atropisomer, axis not shown; (M)) [Example 5, (2S)-2-(tert-butoxy)-2-((M)-8-(8-fluoro-5-methylchroman-6-yl)-3-(3-fluorobenzoyl)-6,9-dimethyl-2,3,4,5-tetrahydro-1H-benzo[d]azepin-7-yl)acetic Acid] | 5 nM
3 | Cc1c(-c2c(C)c3c(c(C)c2[C@H](OC(C)(C)C)C(=O)O)CCN(C(=O)CC(C)(C)C)CC3)cc(F)c2c1CCCO2 (atropisomer, axis not shown; (M)) [Example 6, (S)-2-(tert-butoxy)-2-((M)-3-(3,3-dimethylbutanoyl)-8-(8-fluoro-5-methylchroman-6-yl)-6,9-dimethyl-2,3,4,5-tetrahydro-1H-benzo[d]azepin-7-yl)acetic Acid] | 60 nM
4 | COc1ccc(F)cc1C(=O)N1CCc2c(C)c(-c3cc(F)c4c(c3C)CCCO4)c([C@H](OC(C)(C)C)C(=O)O)c(C)c2CC1 (atropisomer, axis not shown; (M)) [Example 7, (S)-2-(tert-butoxy)-2-((M)-3-(5-fluoro-2-methoxybenzoyl)-8-(8-fluoro-5-methylchroman-6-yl)-6,9-dimethyl-2,3,4,5-tetrahydro-1H-benzo[d]azepin-7-yl)acetic Acid] | 5 nM
5 | COc1ccc(C)cc1C(=O)N1CCc2c(C)c(-c3cc(F)c4c(c3C)CCCO4)c([C@H](OC(C)(C)C)C(=O)O)c(C)c2CC1 (atropisomer, axis not shown; (M)) [Example 8, (S)-2-(tert-butoxy)-2-((M)-8-(8-fluoro-5-methylchroman-6-yl)-3-(2-methoxy-5-methylbenzoyl)-6,9-dimethyl-2,3,4,5-tetrahydro-1H-benzo[d]azepin-7-yl)acetic Acid] | 4 nM
6 | COc1ccc(C(=O)N2CCc3c(C)c(-c4cc(F)c5c(c4C)CCCO5)c([C@H](OC(C)(C)C)C(=O)O)c(C)c3CC2)cc1C (atropisomer, axis not shown; (M)) [Example 9, (S)-2-(tert-butoxy)-2-((M)-8-(8-fluoro-5-methylchroman-6-yl)-3-(4-methoxy-3-methylbenzoyl)-6,9-dimethyl-2,3,4,5-tetrahydro-1H-benzo[d]azepin-7-yl)acetic Acid] | 14 nM
7 | COc1c(F)cccc1C(=O)N1CCc2c(C)c(-c3cc(F)c4c(c3C)CCCO4)c([C@H](OC(C)(C)C)C(=O)O)c(C)c2CC1 (atropisomer, axis not shown; (M)) [Example 10, (S)-2-(tert-butoxy)-2-((M)-3-(3-fluoro-2-methoxybenzoyl)-8-(8-fluoro-5-methylchroman-6-yl)-6,9-dimethyl-2,3,4,5-tetrahydro-1H-benzo[d]azepin-7-yl)acetic Acid] | 5 nM
8 | Cc1c(-c2c(C)c3c(c(C)c2[C@H](OC(C)(C)C)C(=O)O)CCN(C(=O)c2cccc4c2OCC4)CC3)cc(F)c2c1CCCO2 (atropisomer, axis not shown; (M)) [Example 11, (S)-2-(tert-butoxy)-2-((M)-3-(2,3-dihydrobenzofuran-7-carbonyl)-8-(8-fluoro-5-methylchroman-6-yl)-6,9-dimethyl-2,3,4,5-tetrahydro-1H-benzo[d]azepin-7-yl)acetic Acid] | 9 nM
9 | Cc1c(-c2c(C)c3c(c(C)c2[C@H](OC(C)(C)C)C(=O)O)CCN(C(=O)C2CCCCC2)CC3)cc(F)c2c1CCCO2 (atropisomer, axis not shown; (M)) [Example 12, (S)-2-(tert-butoxy)-2-((M)-3-(cyclohexanecarbonyl)-8-(8-fluoro-5-methylchroman-6-yl)-6,9-dimethyl-2,3,4,5-tetrahydro-1H-benzo[d]azepin-7-yl)acetic Acid] | 19 nM
10 | COc1cc(C(=O)N2CCc3c(C)c(-c4cc(F)c5c(c4C)CCCO5)c([C@H](OC(C)(C)C)C(=O)O)c(C)c3CC2)ccc1F (atropisomer, axis not shown; (M)) [Example 13, (S)-2-(tert-butoxy)-2-((M)-3-(4-fluoro-3-methoxybenzoyl)-8-(8-fluoro-5-methylchroman-6-yl)-6,9-dimethyl-2,3,4,5-tetrahydro-1H-benzo[d]azepin-7-yl)acetic Acid] | 4 nM
11 | Cc1c(-c2c(C)c3c(c(C)c2[C@H](OC(C)(C)C)C(=O)O)CCN(C(=O)C(=O)N2CCCCC2)CC3)cc(F)c2c1CCCO2 (atropisomer, axis not shown; (M)) [Example 14, (S)-2-(tert-butoxy)-2-((M)-8-(8-fluoro-5-methylchroman-6-yl)-6,9-dimethyl-3-(2-oxo-2-(piperidin-1-yl)acetyl)-2,3,4,5-tetrahydro-1H-benzo[d]azepin-7-yl)acetic Acid] | 17 nM
12 | Cc1c(-c2c(C)c3c(c(C)c2[C@H](OC(C)(C)C)C(=O)O)CCN(Cc2cccc(F)c2)CC3)cc(F)c2c1CCCO2 (atropisomer, axis not shown; (M)) [Example 15, (S)-2-(tert-butoxy)-2-((M)-8-(8-fluoro-5-methylchroman-6-yl)-3-(3-fluorobenzyl)-6,9-dimethyl-2,3,4,5-tetrahydro-1H-benzo[d]azepin-7-yl)acetic Acid] | 77 nM
13 | Cc1c(-c2c(C)c3c(c(C)c2[C@H](OC(C)(C)C)C(=O)O)CCN(CCC2CCCCC2)CC3)cc(F)c2c1CCCO2 (atropisomer, axis not shown; (M)) [Example 16, (2S)-2-(tert-butoxy)-2-((M)-3-(2-cyclohexylethyl)-8-(8-fluoro-5-methylchroman-6-yl)-6,9-dimethyl-2,3,4,5-tetrahydro-1H-benzo[d]azepin-7-yl)acetic Acid] | 13 nM
14 | Cc1c(-c2c(C)c3c(c(C)c2[C@H](OC(C)(C)C)C(=O)O)CCN(CC2CCCCC2)CC3)cc(F)c2c1CCCO2 (atropisomer, axis not shown; (M)) [Example 17, (S)-2-(tert-butoxy)-2-((M)-3-(cyclohexylmethyl)-8-(8-fluoro-5-methylchroman-6-yl)-6,9-dimethyl-2,3,4,5-tetrahydro-1H-benzo[d]azepin-7-yl)acetic Acid] | 10 nM
15 | Cc1c(-c2c(C)c3c(c(C)c2[C@H](OC(C)(C)C)C(=O)O)CCN(C2CCCCC2)CC3)cc(F)c2c1CCCO2 (atropisomer, axis not shown; (M)) [Example 18, (2S)-2-(tert-butoxy)-2-((M)-3-cyclohexyl-8-(8-fluoro-5-methylchroman-6-yl)-6,9-dimethyl-2,3,4,5-tetrahydro-1H-benzo[d]azepin-7-yl)acetic Acid] | 13 nM
16 | Cc1c(-c2c(C)c3c(c(C)c2[C@H](OC(C)(C)C)C(=O)O)CCN(c2ccccc2)CC3)cc(F)c2c1CCCO2 (atropisomer, axis not shown; (M)) [Example 19, (2S)-2-(tert-butoxy)-2-((M)-8-(8-fluoro-5-methylchroman-6-yl)-6,9-dimethyl-3-phenyl-2,3,4,5-tetrahydro-1H-benzo[d]azepin-7-yl)acetic Acid] | 92 nM
17 | Cc1c(-c2c(C)c3c(c(C)c2[C@H](OC(C)(C)C)C(=O)O)CCN(S(=O)(=O)C2CCCCC2)CC3)cc(F)c2c1CCCO2 (atropisomer, axis not shown; (M)) [Example 20, (2S)-2-(tert-butoxy)-2-((M)-3-(cyclohexylsulfonyl)-8-(8-fluoro-5-methylchroman-6-yl)-6,9-dimethyl-2,3,4,5-tetrahydro-1H-benzo[d]azepin-7-yl)acetic Acid] | 42 nM
18 | Cc1c(-c2c(C)c3c(c(C)c2[C@H](OC(C)(C)C)C(=O)O)CCN(S(=O)(=O)N2CCCCC2)CC3)cc(F)c2c1CCCO2 (atropisomer, axis not shown; (M)) [Example 21, (2S)-2-(tert-butoxy)-2-((M)-8-(8-fluoro-5-methylchroman-6-yl)-6,9-dimethyl-3-(piperidin-1-ylsulfonyl)-2,3,4,5-tetrahydro-1H-benzo[d]azepin-7-yl)acetic Acid] | 8 nM
19 | Cc1c(-c2c(C)c3c(c(C)c2[C@H](OC(C)(C)C)C(=O)O)CCN(C(=O)N2CCCCC2)CC3)cc(F)c2c1CCCO2 (atropisomer, axis not shown; (M)) [Example 22, (2S)-2-(tert-butoxy)-2-((M)-8-(8-fluoro-5-methylchroman-6-yl)-6,9-dimethyl-3-(piperidine-1-carbonyl)-2,3,4,5-tetrahydro-1H-benzo[d]azepin-7-yl)acetic Acid] | 9 nM
20 | COc1ccc(-c2c(C)c3c(c(C)c2[C@H](OC(C)(C)C)C(=O)O)CCN(C(=O)c2cccc(F)c2)CC3)cc1 [Example 2, (S)-2-(tert-butoxy)-2-(3-(3-fluorobenzoyl)-8-(4-methoxyphenyl)-6,9-dimethyl-2,3,4,5-tetrahydro-1H-benzo[d]azepin-7-yl)acetic Acid] | 76 nM
21 | Cc1c2c(c(C)c([C@H](OC(C)(C)C)C(=O)O)c1-c1ccccc1)CCN(C(=O)c1cccc(F)c1)CC2 [Example 3, (S)-2-(tert-butoxy)-2-(3-(3-fluorobenzoyl)-6,9-dimethyl-8-phenyl-2,3,4,5-tetrahydro-1H-benzo[d]azepin-7-yl)acetic Acid] | 219 nM
